Measurements: patent US20050164945A1, “Endotheliase-1 ligands” (priority 2003, published 2005)

Key:
ET-2 = settings: for ET-2 estimated IC50: 30 minute preincubation with 100 nM Kunitz domain; for IC50: read-out: ET-2 estimated IC50, 30 minute preincubation with 100 nM Kunitz domain
Protocol: (§1) Cloning into this vector placed a His-tag at the C-terminus of the protein that was used to facilitate purification.
(§2) For protein production, E. coli containing the expression vector were grown in media containing ampicillin and 2% glucose to an OD600 of 0.5. At this time the cells were spun down and the media removed. The cell pellet was then resuspended in fresh media containing ampicillin and 1 mM IPTG to induce expression of the protein. The cells were allowed to grow with shaking overnight at 30° C. before harvesting by centrifugation. Periplasmic extracts were then prepared and the MBP-Kunitz fusion purified using immobilized metal ion chromatography.

MTSP-1 = MTSP-1 (Homo sapiens, UniProt Q9Y5Y6); settings: 30 minute preincubation with 100 nM Kunitz domain
Protocol: as §1, §2

Trypsin = settings: read-out: Trypsin estimated IC50, 30 minute preincubation with 100 nM Kunitz domain
Protocol: as §1, §2

fXa = fXa (Homo sapiens, UniProt P00742); settings: 30 minute preincubation with 100 nM Kunitz domain
Protocol: as §1, §2

TnIV = TnIV (Homo sapiens, UniProt P35030); settings: 30 minute preincubation with 100 nM Kunitz domain
Protocol: as §1, §2

Sequence of ET-2 (Q9BYE2 326-559 limits assumed): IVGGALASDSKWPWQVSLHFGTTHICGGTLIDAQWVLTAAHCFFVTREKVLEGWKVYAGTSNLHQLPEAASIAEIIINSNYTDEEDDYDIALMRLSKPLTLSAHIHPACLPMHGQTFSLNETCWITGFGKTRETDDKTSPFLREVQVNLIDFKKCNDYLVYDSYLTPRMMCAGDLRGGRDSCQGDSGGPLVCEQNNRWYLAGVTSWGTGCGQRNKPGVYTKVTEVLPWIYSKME
Sequence of TnIV (P35030 whole entry, the tested form may be a part): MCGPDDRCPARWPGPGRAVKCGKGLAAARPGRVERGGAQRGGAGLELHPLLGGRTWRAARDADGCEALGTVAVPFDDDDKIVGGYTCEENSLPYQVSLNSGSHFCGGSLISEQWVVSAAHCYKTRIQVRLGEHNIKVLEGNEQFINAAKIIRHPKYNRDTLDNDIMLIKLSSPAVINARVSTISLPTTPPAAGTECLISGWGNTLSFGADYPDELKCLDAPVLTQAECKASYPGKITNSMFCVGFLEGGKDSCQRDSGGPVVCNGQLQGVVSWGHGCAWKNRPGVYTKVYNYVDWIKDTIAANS
Sequence of fXa (P00742 235-488 limits assumed): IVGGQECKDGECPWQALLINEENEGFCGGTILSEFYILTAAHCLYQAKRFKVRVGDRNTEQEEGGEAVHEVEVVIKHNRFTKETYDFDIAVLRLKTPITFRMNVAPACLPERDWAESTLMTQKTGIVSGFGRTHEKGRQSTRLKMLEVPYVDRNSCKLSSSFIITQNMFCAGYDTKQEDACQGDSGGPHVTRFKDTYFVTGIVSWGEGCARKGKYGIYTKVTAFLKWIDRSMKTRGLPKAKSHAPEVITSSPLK
Sequence of fXa (P00742 41-179 partner limits assumed): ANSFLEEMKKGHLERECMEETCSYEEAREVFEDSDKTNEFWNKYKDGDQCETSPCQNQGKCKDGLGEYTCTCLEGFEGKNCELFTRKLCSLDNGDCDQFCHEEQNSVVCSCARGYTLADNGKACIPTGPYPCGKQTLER
Sequence of MTSP-1 (Q9Y5Y6 whole entry, species assumed, the tested form may be a part): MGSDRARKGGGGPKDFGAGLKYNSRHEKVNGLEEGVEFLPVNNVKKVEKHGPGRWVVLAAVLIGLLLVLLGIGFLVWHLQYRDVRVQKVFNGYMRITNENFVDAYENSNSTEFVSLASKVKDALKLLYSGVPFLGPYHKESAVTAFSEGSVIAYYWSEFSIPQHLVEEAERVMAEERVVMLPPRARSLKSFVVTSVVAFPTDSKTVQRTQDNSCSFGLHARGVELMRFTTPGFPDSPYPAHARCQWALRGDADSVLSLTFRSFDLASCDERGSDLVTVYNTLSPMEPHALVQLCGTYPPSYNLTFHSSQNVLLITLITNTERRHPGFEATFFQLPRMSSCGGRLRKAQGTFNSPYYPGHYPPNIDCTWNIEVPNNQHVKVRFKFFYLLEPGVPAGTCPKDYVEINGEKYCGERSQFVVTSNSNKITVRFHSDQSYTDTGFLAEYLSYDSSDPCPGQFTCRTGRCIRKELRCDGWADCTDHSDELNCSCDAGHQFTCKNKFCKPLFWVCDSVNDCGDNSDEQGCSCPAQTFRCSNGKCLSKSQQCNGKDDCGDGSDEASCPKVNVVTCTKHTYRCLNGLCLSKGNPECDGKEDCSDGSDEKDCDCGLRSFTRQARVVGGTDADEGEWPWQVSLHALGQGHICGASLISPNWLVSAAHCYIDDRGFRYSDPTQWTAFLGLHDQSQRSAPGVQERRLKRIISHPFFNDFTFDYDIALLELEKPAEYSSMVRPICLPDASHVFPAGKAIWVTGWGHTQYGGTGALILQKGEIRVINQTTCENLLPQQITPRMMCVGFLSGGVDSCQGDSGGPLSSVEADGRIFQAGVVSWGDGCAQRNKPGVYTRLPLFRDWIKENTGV

Sequence	ET-2 estimated IC50 (ET-2)	MTSP-1 estimated IC50 (MTSP-1)	IC50 (Trypsin)	fXa estimated IC50 (fXa)	IC50 (ET-2)	TnIV estimated IC50 (TnIV)
MAAEMHSFCAFKADKGECRASVQRFFFNIFTRQCEEFNYGGCGGNQNRFESLEECKKMCTRDSASSASGDFD [MBP-D12]	IA (IA = <5% inhibition @ 100 nM)	IA (IA = <5% inhibition @ 100 nM)	~30 nM	–	–	–
MAAEMHSFCAFKADKGFCRAMDIRFFFNIFTRQCEEFIYGGCGGNQNRFESLEECKKMCTRDSASSASGDFD [MBP-1B2]	IA (IA = <5% inhibition @ 100 nM)	IA (IA = <5% inhibition @ 100 nM)	< 10 nM	IA (IA = <5% inhibition @ 100 nM)	–	–
MAAEMHSFCAFKADKGTCRGDFPRFFFNIFTRQCEEFHYGGCGGNQNRFESLEECKKMCTRDSASSASGDFD [MBP-1E9]	IA (IA = <5% inhibition @ 100 nM)	IA (IA = <5% inhibition @ 100 nM)	≥ 1000 nM	IA (IA = <5% inhibition @ 100 nM)	–	–
MAAEMHSFCAFKADPGPCRAIMTRFFFNIFTRQCEEFRYGGCLGNQNRFESLEECKKMCTRDSASSASGDFD [MBP-1G11]	–	IA (IA = <5% inhibition @ 100 nM)	< 10 nM	–	≥ 1000 nM	–
MAAEMHSFCAFKADPGPCRAMFNRFFFNIFTRQCEEFNYGGCSGNQNRFESLEECKKMCTRDSASSASGDFD [MBP-1E6]	–	–	< 10 nM	IA (IA = <5% inhibition @ 100 nM)	~400 nM	–
MAAEMHSFCAFKADPGQCRAYYRRFFFNIFTRQCEEFVYGGCMGNQNRFESLEECKKMCTRDSASSASGDFD [MBP-1G2]	–	IA (IA = <5% inhibition @ 100 nM)	< 10 nM	–	~300 nM	–
MAAEMHSFCAFKADQGPCRAAISRFFFNIFTRQCEEFVYGGCEGNQNRFESLEECKKMCTRDSASSASGDFD [MBP-1D9]	–	IA (IA = <5% inhibition @ 100 nM)	~50 nM	IA (IA = <5% inhibition @ 100 nM)	≥ 1000 nM	–
MAAEMHSFCAFKADQGPCRASVHRFFFNIFTRQCEEFFYGGCLGNQNRFESLEECKKMCTRDSASSASGDFD [MBP-1F8]	IA (IA = <5% inhibition @ 100 nM)	IA (IA = <5% inhibition @ 100 nM)	< 10 nM	IA (IA = <5% inhibition @ 100 nM)	–	IA (IA = <5% inhibition @ 100 nM)
MAAEMHSFCAFKADRGPCRADFHRFFFNIFTRQCEEFHYGGCGGNQNRFESLEECKKMCTRDSASSASGDFD [MBP-1A10]	IA (IA = <5% inhibition @ 100 nM)	–	< 10 nM	IA (IA = <5% inhibition @ 100 nM)	–	–
MAAEMHSFCAFKADRGPCRAYFDRFFFNIFTRQGEEFIYGGCMGNQNRFESLEECKKMCTRDSASSASGDFD [MBP-1G8]	IA (IA = <5% inhibition @ 100 nM)	IA (IA = <5% inhibition @ 100 nM)	~10 nM	–	–	–
MAAEMHSFCAFKADTGPCRADIKRFFFNIFTRQCEEFRYGGCMGNQNRFESLEECKKMCTRDSASSASGDFD [MBP-1G9]	IA (IA = <5% inhibition @ 100 nM)	–	~60 nM	IA (IA = <5% inhibition @ 100 nM)	–	IA (IA = <5% inhibition @ 100 nM)
MAAEMHSFCAFKADTGTCRAAMVRFFFNIFTRQCEEFTYGGCEGNQNRFESLEECKKMCTRDSASSASGDFD [MBP-1H8]	IA (IA = <5% inhibition @ 100 nM)	IA (IA = <5% inhibition @ 100 nM)	~30 nM	IA (IA = <5% inhibition @ 100 nM)	–	IA (IA = <5% inhibition @ 100 nM)
